Test results: patent US4785080A, “Labeled analytes” (Baker Instruments Corporation, priority 1985, dated 1988)
Several values for one entry are separate records, joined by “and”; a condition that tells them apart may be missing. Equal values may be shown once.

Columns and labels:
[1] = system: thyroxine antibody; experiment: Reference displacement curve, thyroxine vs thyroxine-S-peptide, fluorogenic substrate (Example XVII); assay type: binding; conditions: for Rate: antibody
Method: This Example illustrates the generation of a reference displacement curve using thyroxine-S peptide as the labeled analyte and 5'-0-acetyl uridine-3'-(4 methylumbelliferone-7-yl phosphate) as a fluorogenic substrate. The following reagents were prepared:
a. Thyroxine-S-Peptide labeled analyte: Material prepared as described in Examples I-IV, was diluted by a factor of 1:2000 in 0.1M sodium acetate buffer of pH 5.0.
b. Antibody: Antiserum was diluted by a factor of 1:2000 using 0.1M sodium acetate buffer of pH 5.0;
c. S-Protein: Purified material was brought to 2×10^-5 M using 0.1M sodium acetate buffer of pH 5.0;
d. Substrate: Seventeen milligrams of 5'-0-acetyl-2'-0-(tetrahydropyran-2-yl) uridine 3'-(4 methylumbelliferone-7-yl ammonium phosphate was stirred in 0.01HCl for 45 minutes and then extracted with ether. Fifty ml of 0.01M sodium acetate buffer, of pH 5, was then added to give the substrate solution;
e. Thyroxine antibody standards: Thyroxine solutions were freshly prepared to provide thyroxine concentrations of 0 ng/ml, 30 ng/ml, 60 ng/ml, 120 ng/ml, and 240 ng/ml in an aqueous medium containing human serum.
Seventy-five microliters of the standard thyroxine solution was pretreated with 20 ul of 0.5N sodium hydroxide […] at room temperature. One hundred microliters of the antibody and 300 ul of thyroxine-S peptide labeled analyte were then added, and the mixture was incubated for 30 minutes at room temperature. A mixture consisting of 1.8 ml of substrate and 100 ul S-protein was then added. After incubating for 5 minutes, the rate of increase of fluorescence was monitored over a 10 minute period. An Aminco Filter Fluorometer (Model J4-7440) equipped with an automatic 20 sample changer (Model 047-67059) was utilized with excitation at 325 nm and emission at 440 nm. The data points were taken for each sample at times 0, 5, and 10 minutes by an automatic data acquisition system. Table 7 summarizes the results:
In order to obtain a displacement curve, the data for duplicate points are averaged; and the % bound fraction (% B/Bo) is calculated from the equation: [formula] where Rate Bn is the rate corresponding to a non-zero standard and Rate Bo is that corresponding to the zero standard solution.

[2] = system: thyroxine antibody; experiment: Reference displacement curve, thyroxine vs thyroxine-S-peptide, colorimetric, CentrifiChem 500 (Example XVIII); assay type: binding; conditions: for Rate: antibody
Method: This Example illustrates the generation of a reference displacement curve for determination of unknown concentrations of the analyte thyroxine where a colorimetric substrate is utilized along with a centrifugal fast analyzer.
(§1) The following reagents were utilized:
a. Thyroxine S-peptide labeled analyte: Material prepared in the manner described in Examples I-IV was diluted by a factor of 1:400 with 0.1M sodium acetate buffer of pH 5.0;
b. Antibody: Antiserum was diluted by a factor of 1:300 with 0.1M sodium acetate buffer of pH 5.0;
c. Substrate: Uridine 3'-α-naphthyl phosphate;
d. S-protein: Sigma purified commercial material was brought to 2.5×10^-6 M in 0.1M sodium acetate buffer;
e. Dye: The 1,5-naphthalene disulfonic acid stabilized salt of diazo-psulfanilic acid (25 mg.) was dissolved in 1 ml of 0.1N HCl;
f. Standards: Thyroxine standards at concentrations of 0, 40, 80, 120, and 200 ng/ml were made up in a human serum containing solution.
The following settings were utilized on the CentrifiChem° 500 centrifugal fast analyzer: rotor temp, 30°; filter, 520 nm; To, 10 sec; t, 2 min; ABS 1.0 u; Blank, hold; test mode, Term; Print out, ABS; conc. factor, 0; test code 0.
The standard (20 ul), antibody and polypeptide labeled analyte were pipetted into the sample wells of channels 3 to 14 of the transfer disc. A mixture of 5 ul of the dye, 300 ul of substrate, and 20 ul of S-protein, was pipetted into the corresponding reagent wells along with 10 ul of acetate buffer. The loaded transfer disc was placed on the rotor, and the instrument was spun. […]

[3] = system: thyroxine antibody; experiment: Reference displacement curve, thyroxine, interconverted pipetting of labeled analyte and S-protein (Example XIX); assay type: binding; conditions: for 10^3 Rate: antibody
Description: This Example illustrates the interconversion of the thyroxine labeled analyte and S-protein where the S-protein is pipetted into the sample well and the labeled analyte is pipetted into the reagent well, in contrast to the preceding example where the reverse arrangement was used. Additionally, this Example illustrates the formulation of two reagent solutions for direct pipetting into the sample and reagent wells of the transfer disc using an automatic pipetter (Centrifichem® model P-500 pipetter). Thirdly, this Example illustrates the enhancement of dynamic range in relation to that obtained in Example XVIII by increasing the concentrations of the antibody and S-protein.
as §1
a. Thyroxine-S-peptide labeled analyte: Material prepared in the manner described in Examples I-IV was diluted by a factor of 1:50 with 0.1M sodium acetate buffer of pH 5.0;
b. Antibody: Antiserum was diluted by a factor of 1:30 with 0.1M sodium acetate buffer of pH 5.0;
c. Substrate: Uridine 3'-(α-naphthyl phosphate);
d. S-protein: Sigma purified commercial material was brought to […] in 0.1M sodium acetate buffer;
e. Dye: As in Example XVIII.
f. Standards: As in Example XVIII.
A mixture consisting of 500 ul of the substrate, 100 ul of the dye, and 250 ul of the conjugate was prepared. (Reagent A)
A second solution (Reagent B) was prepared by combining 300 ul of the antibody, reagent, 300 ul of the S-protein and 150 ul of 0.1N. sodium acetate buffer.
The following protocol was utilized for the assay: The standard (20 ul) and 65 ul of de-ionized H2 O were delivered to the sample well of the transfer disc by the sample probe of the P-500 pipetter. The reagent B (50 ul) was delivered to the sample well with the second reagent probe of the pipetter. Reagent A (250 ul) was delivered to the reagent well of the transfer disc with the first reagent probe of the pipetter. All three pipetting operations were done simultaneously in one cycle. The transfer disc was then placed on the CentrifiChem® 400 for analysis. The following settings were utilized for the CentrifiChem®: temperature, 30°; filter, 520 nm; T0, 10 seconds; T, 2 minutes; Abs, 3.0 u; Blank, hold; test mode, Term; print out, Abs; concentration factor, 0; test code, 0.

[4] = system: thyroxine antibody; experiment: Effect of pH on immunoreactivity in the assay of thyroxine; assay type: binding; conditions: pH from 5 to about 7
Description: The effect of pH on the assay should likewise be considered. […] While the naphthyl phosphate substrate described herein may be suitably used at a pH of 5, the preferred umbelliferone-type substrate needs a pH in the range of about 6 to about 8 for useful operation in the […] mode. Sensitivities in pH can perhaps be overcome by changing the charge characteristics of the labeled analyte, as by incorporating more basic groups on the analyte molecule. Also, the use of a more avid antisera for thyroxine should be helpful. It may also be helpful to modify the linking chemistry (e.g.--the site, type of linking groups).

[5] = system: RNase 1-118; conditions: combined with RNase 1-118; cited from earlier work

## N[C@@H](Cc1cc(I)c(Oc2cc(I)c(O)c(I)c2)c(I)c1)C(=O)O [thyroxine]
[1]; thyroxine standard 30 ng/ml
  Rate: 13.00 mv/min and 13.57 mv/min
[1]; thyroxine standard 60 ng/ml
  Rate: 13.30 mv/min and 13.40 mv/min
[1]; thyroxine standard 120 ng/ml
  Rate: 13.68 mv/min
[1]; thyroxine standard 240 ng/ml
  Rate: 14.15 mv/min and 14.17 mv/min
[1]; standard 30 ng/ml
  % B/B0 (% bound fraction): 67%
  Rate (average of duplicates): 13.28 mv/min
[1]; standard 60 ng/ml
  % B/B0 (% bound fraction): 64%
  Rate (average of duplicates): 13.35 mv/min
[1]; standard 120 ng/ml
  % B/B0 (% bound fraction): 51%
  Rate (average of duplicates): 13.68 mv/min
[1]; standard 240 ng/ml
  % B/B0 (% bound fraction): 32%
  Rate (average of duplicates): 14.16 mv/min
[2]; 0 to 200 ng/ml
  rate response between the 0 standard and 200 ng/ml standard: 3.5 m.a.u./min.
[2]; standard 40 ng/ml
  Rate: 0.0208 a.u./min and 0.0222 a.u./min
[2]; standard 80 ng/ml
  Rate: 0.0217 a.u./min and 0.0218 a.u./min
[2]; standard 120 ng/ml
  Rate: 0.0224 a.u./min
[2]; standard 200 ng/ml
  Rate: 0.0230 a.u./min
[3]; 0-200 ng/ml
  spread in rate covering the range of standard concentrations: 12 milliabsorbance units/min.
  spread in rate relative to Example XVIII: about 4 times
[3]; standard 40 ng/ml
  10^3 Rate: 57.8 a.u./min. and 58.3 a.u./min.
[3]; standard 80 ng/ml
  10^3 Rate: 60.4 a.u./min. and 59.5 a.u./min.
[3]; standard 120 ng/ml
  10^3 Rate: 62.0 a.u./min. and 64.8 a.u./min.
[3]; standard 200 ng/ml
  10^3 Rate: 65.3 a.u./min.
[4]
  immunoreactivity as the pH is increased: immunoreactivity is decreased

## tetradecapeptide 111 to 124: synthesized tetradecapeptide corresponding to residues 111 to 124 of the original RNase (EGNPYVPVHFDASV; UniProt P61823 137-150, looked up, fragment)
[5]
  recovery of catalytic activity of RNase: essentially the full catalytic activity of RNase was recovered
